In paper PMC13210772, “Dual FLT3/MAPK14 Proteolysis-Targeting Chimera (PROTAC) Induces Potent Acute Myeloid Leukemia Cell Death” (Pharmaceuticals, 2026):

Columns and labels:
FLT3-ITD [1] = assay: KINOMEscan binding assay
Experimental: Binding to FLT3-ITD was determined using the KINOMEscan^TM assay (Eurofins DiscoverX Corporation, San Diego, CA, USA)
Kinase-tagged T7 phage strains were prepared in an E. coli host derived from the BL21 strain. E. coli were grown to log-phase and infected with T7 phage and incubated with shaking at 32 °C until lysis. The lysates were centrifuged and filtered to remove cell debris. The remaining kinases were produced in HEK-293 cells and subsequently tagged with DNA for qPCR detection. […] The liganded beads were blocked with excess biotin and washed with blocking buffer (SeaBlock (Pierce), 1% BSA, 0.05% Tween 20, 1 mM DTT) to remove unbound ligand and to reduce non-specific binding. […] The compounds were then diluted directly into the assays such that the final concentration of DMSO was 0.9%. All reactions performed in polypropylene 384-well plate. Each was a final volume of 0.02 mL. […] The kinase concentration in the eluates was measured by qPCR.

in vitro = conditions: human, HEK293 cells
[2] = Metabolic stability in liver microsomes; conditions: for degraded after 2 h: mouse liver microsomes; for 10 min - compound remaining % / 20 min - compound remaining % / 30 min - compound remaining % / 60 min - compound remaining % / 120 min - compound remaining %: single runs A and B (Table S3)
MOLM-13 cells = assay: Apoptosis by flow cytometry (annexin-V/propidium iodine); format: cell-based, human; conditions: 72 h
Experimental: To further assess the biological relevance of these findings, we treated MV4-11 cells with the new PROTACs, included MA49 as control, and analyzed them for early (annexin-V positive) and late apoptosis (annexin-V and propidium iodine positive) by flow cytometry. Cells in late apoptosis are more severely damaged than cells in early apoptosis. […] After 72 h, all degraders evoked equal levels of apoptosis (Figure 4c). We additionally tested these degraders in MOLM-13 cells which carry FLT3-ITD and FLT3 from a patient with AML after initial myelodysplastic syndrome.
(§1) Figure 4 Biological and biochemical characterization of the FLT3 PROTACs. (a) MV4-11 cells were incubated for 24 h with 50 nM of the indicated compounds. Immunoblotting was performed for the indicated proteins and their phosphorylation (p-) or cleavage (cl.; indicated by arrows); β-actin was used to ensure equal sample loading. (b) MV4-11 cells were treated with the indicated agents and analyzed for early and late apoptosis by flow cytometry. (c) Same as in (b) but treatment for 72 h. (d) MOLM-13 cells were treated with the indicated agents and analyzed for early and late apoptosis by flow cytometry. […] Immunoblots show the expression of the indicated proteins and their phosphorylation (p-); β-actin was used to ensure equal sample loading. All immunoblots show data from at least two independent repetitions and flow cytometry analyses were conducted thrice independently; * […], ** p < 0.01, *** p < 0.001, **** p < 0.0001.

HEK293 cells = assay: Cytotoxicity in HEK293 cells (Alamar Blue); conditions: 50 µM
TEC = TEC (Homo sapiens, UniProt P42680); assay: NanoBRET CELLinib128; conditions: read-out: Tracer bound
Sequence of TEC (P42680 whole entry): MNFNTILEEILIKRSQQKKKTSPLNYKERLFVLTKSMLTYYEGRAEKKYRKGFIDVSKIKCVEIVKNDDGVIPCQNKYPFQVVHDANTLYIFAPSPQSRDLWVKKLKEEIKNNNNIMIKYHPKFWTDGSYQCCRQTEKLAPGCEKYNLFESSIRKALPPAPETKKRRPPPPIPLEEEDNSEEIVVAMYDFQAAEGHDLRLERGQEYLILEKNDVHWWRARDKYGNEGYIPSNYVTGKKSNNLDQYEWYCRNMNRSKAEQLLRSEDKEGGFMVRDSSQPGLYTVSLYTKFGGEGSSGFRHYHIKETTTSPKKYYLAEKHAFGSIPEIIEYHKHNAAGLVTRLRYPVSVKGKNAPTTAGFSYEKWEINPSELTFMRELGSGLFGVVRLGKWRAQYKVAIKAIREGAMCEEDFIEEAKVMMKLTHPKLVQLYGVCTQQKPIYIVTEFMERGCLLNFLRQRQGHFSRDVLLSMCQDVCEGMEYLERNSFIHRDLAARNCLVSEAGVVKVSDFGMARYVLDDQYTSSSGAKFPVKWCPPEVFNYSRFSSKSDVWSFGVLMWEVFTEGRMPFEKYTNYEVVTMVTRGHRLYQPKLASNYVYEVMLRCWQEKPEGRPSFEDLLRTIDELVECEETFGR

EPHA1 = EPHA1 (Homo sapiens, UniProt P21709); assay: NanoBRET CELLinib128; conditions: read-out: Tracer bound
Sequence of EPHA1 (P21709 26-976): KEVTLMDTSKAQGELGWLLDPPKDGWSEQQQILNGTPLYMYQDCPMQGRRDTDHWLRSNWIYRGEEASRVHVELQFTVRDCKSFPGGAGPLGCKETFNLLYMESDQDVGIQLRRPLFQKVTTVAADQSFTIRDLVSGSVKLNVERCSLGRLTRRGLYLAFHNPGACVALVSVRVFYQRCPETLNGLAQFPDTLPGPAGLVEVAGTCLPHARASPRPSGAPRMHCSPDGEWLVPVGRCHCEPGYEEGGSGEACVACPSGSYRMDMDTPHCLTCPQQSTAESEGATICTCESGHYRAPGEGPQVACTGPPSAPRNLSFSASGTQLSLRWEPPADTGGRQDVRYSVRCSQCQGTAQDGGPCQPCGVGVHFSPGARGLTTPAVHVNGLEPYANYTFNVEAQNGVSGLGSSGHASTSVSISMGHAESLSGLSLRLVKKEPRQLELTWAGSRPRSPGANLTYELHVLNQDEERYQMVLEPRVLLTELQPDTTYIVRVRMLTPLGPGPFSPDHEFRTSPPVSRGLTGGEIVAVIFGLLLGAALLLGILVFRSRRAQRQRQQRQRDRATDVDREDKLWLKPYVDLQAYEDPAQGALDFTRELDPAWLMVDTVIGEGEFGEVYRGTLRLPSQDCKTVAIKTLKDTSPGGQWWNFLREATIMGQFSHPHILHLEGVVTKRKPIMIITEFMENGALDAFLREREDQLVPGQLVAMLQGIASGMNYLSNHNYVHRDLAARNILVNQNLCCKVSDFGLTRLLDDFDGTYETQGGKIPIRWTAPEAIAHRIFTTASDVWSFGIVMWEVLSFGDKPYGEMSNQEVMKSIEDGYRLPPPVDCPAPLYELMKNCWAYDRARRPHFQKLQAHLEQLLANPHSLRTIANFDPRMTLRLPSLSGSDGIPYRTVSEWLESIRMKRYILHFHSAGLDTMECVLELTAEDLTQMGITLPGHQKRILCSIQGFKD

STK17B = molecular target: T1, STK17B (Homo sapiens, UniProt O94768); assay: NanoBRET CELLinib128; format: binding; conditions: 100% no effect, 0% complete tracer displacement, read-out: Tracer bound
T1 construct: Full-length kinase ORF (Promega, Madison, WI, USA) cloned in frame with a NanoLuc-vector was transfected into HEK293T cells; host or cells: HEK293T

EPHA4 = EPHA4 (Homo sapiens, UniProt P54764); assay: NanoBRET CELLinib128; conditions: read-out: Tracer bound
SRC = SRC (Homo sapiens, UniProt P12931); assay: NanoBRET CELLinib128; conditions: read-out: Tracer bound
STK26 = STK26 (Homo sapiens, UniProt Q9P289); assay: NanoBRET CELLinib128; conditions: read-out: Tracer bound
EPHB1 = EPHB1 (Homo sapiens, UniProt P54762); assay: NanoBRET CELLinib128; conditions: read-out: Tracer bound
FLT3-ITD [3] = assay: FLT3-ITD degradation, immunoblot in MOLM-13 cells; format: cell-based, human; conditions: 50 nM, 24 h
Excerpt: To verify that MA190 and MA191 trigger the depletion of FLT3-ITD and a breakdown of its downstream signaling in both MV4-11 and MOLM-13 cells, we used immunoblotting. Furthermore, we evaluated if the elimination of FLT3-ITD is inherent to the PROTAC activities of MA190 and MA191, or due to their kinase inhibitor moieties using MA68. […] The loss of FLT3-ITD was linked to a reduction of STAT5 and AKT, their phosphorylation, and the auto-phosphorylation of FLT3-ITD in both AML cell systems (Figure 4f,g).
as §1

GSK3B = GSK3B (Homo sapiens, UniProt P49841); assay: NanoBRET CELLinib128; conditions: read-out: Tracer bound
CAMK1D = molecular target: T2, CAMK1D (Homo sapiens, UniProt Q8IU85); assay: NanoBRET CELLinib128; format: binding; conditions: 100% no effect, 0% complete tracer displacement, read-out: Tracer bound
T2 construct: Full-length kinase ORF (Promega, Madison, WI, USA) cloned in frame with a NanoLuc-vector was transfected into HEK293T cells; host or cells: HEK293T

EPHB3 = molecular target: T3, EPHB3 (Homo sapiens, UniProt P54753); assay: NanoBRET CELLinib128; format: binding; conditions: 100% no effect, 0% complete tracer displacement, read-out: Tracer bound
T3 construct: Full-length kinase ORF (Promega, Madison, WI, USA) cloned in frame with a NanoLuc-vector was transfected into HEK293T cells; host or cells: HEK293T

DDR1 = DDR1 (Homo sapiens, UniProt Q08345); assay: NanoBRET CELLinib128; conditions: read-out: Tracer bound
Sequence of DDR1 (Q08345 19-913): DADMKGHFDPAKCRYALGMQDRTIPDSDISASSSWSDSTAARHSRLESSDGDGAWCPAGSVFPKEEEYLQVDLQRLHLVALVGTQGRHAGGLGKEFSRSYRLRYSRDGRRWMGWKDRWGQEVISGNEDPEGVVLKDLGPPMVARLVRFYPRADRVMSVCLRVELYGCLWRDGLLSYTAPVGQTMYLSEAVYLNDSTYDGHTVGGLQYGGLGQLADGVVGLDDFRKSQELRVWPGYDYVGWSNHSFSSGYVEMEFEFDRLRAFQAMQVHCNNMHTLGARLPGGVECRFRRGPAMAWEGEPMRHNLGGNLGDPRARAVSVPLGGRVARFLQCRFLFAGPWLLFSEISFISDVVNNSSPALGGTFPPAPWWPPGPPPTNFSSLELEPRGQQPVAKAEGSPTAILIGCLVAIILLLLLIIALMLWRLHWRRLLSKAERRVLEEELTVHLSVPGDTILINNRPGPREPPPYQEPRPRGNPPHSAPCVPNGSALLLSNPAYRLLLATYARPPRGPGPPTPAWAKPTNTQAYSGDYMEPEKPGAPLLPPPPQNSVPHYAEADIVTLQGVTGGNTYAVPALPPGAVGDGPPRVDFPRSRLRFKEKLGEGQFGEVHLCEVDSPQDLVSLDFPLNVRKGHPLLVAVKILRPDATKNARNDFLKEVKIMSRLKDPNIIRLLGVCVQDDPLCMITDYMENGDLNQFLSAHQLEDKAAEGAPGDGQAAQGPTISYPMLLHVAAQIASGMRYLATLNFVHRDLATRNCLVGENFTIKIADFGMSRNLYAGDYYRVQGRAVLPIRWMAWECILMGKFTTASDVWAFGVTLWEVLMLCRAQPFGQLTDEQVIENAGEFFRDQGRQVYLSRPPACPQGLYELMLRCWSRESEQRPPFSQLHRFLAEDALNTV

FGR = FGR (Homo sapiens, UniProt P09769); assay: NanoBRET CELLinib128; conditions: read-out: Tracer bound
Sequence of FGR (P09769 whole entry): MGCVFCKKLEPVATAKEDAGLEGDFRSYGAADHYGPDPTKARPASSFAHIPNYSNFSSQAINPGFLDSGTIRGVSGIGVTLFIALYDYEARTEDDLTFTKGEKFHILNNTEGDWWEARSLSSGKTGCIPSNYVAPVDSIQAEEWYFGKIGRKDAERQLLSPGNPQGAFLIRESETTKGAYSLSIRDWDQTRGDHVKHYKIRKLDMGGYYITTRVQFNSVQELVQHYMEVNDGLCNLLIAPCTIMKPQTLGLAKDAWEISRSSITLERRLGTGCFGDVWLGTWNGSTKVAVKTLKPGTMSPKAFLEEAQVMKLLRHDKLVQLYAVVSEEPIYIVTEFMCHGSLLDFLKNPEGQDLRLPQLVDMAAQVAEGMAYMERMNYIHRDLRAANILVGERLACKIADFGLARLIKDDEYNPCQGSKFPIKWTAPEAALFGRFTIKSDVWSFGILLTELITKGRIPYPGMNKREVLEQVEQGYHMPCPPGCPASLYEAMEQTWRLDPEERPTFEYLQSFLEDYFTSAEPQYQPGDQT

MARK3 = MARK3 (Homo sapiens, UniProt P27448); assay: NanoBRET CELLinib128; conditions: read-out: Tracer bound
FRK = molecular target: T4, FRK (Homo sapiens, UniProt P42685); assay: NanoBRET CELLinib128; format: binding; conditions: 100% no effect, 0% complete tracer displacement, read-out: Tracer bound
T4 construct: Full-length kinase ORF (Promega, Madison, WI, USA) cloned in frame with a NanoLuc-vector was transfected into HEK293T cells; host or cells: HEK293T
T4 sequence (P42685 whole entry): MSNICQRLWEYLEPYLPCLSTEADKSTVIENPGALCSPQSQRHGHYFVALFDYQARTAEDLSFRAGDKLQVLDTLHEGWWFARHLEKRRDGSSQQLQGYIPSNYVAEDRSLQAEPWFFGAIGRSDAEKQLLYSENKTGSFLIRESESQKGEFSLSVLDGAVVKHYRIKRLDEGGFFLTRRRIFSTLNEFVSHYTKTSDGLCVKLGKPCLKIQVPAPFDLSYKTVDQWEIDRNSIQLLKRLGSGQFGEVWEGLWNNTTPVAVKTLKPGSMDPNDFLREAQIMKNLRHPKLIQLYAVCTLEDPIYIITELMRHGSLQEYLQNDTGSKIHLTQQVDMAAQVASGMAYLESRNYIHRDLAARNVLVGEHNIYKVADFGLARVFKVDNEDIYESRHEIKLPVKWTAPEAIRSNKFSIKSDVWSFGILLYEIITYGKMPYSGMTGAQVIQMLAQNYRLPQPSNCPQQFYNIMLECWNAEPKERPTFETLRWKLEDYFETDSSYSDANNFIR

EPHB2 = molecular target: T5, EPHB2 (Homo sapiens, UniProt P29323); assay: NanoBRET CELLinib128; format: binding; conditions: 1 µM; 100% no effect, 0% complete tracer displacement
T5 construct: Full-length kinase ORF (Promega, Madison, WI, USA) cloned in frame with a NanoLuc-vector was transfected into HEK293T cells; host or cells: HEK293T
T5 sequence (P29323 19-1055): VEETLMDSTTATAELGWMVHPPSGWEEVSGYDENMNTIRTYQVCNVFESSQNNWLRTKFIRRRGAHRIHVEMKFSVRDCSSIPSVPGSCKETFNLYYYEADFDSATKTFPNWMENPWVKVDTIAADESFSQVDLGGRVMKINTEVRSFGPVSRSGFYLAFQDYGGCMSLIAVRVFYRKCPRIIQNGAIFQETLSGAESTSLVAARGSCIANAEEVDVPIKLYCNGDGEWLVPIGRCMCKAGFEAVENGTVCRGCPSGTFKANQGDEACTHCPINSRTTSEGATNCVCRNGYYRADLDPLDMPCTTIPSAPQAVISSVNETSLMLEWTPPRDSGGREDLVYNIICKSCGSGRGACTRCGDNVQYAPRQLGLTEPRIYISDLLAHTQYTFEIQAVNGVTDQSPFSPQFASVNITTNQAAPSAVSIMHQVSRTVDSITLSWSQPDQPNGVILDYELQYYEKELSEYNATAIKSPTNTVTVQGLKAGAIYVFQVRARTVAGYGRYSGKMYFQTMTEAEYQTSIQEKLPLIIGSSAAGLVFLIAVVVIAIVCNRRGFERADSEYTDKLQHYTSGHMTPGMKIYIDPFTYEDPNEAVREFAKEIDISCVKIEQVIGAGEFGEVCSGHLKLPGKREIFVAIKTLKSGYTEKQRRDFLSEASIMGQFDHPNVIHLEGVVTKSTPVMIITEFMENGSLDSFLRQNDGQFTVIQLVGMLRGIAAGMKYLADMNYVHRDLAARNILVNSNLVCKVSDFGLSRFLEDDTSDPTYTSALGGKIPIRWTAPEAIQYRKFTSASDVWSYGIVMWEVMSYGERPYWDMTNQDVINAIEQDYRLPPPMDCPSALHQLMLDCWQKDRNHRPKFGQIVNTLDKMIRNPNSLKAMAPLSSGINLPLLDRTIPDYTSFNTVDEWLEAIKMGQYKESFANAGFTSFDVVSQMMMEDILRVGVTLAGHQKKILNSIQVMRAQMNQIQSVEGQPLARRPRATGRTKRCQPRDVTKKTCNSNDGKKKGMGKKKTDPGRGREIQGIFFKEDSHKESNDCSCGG

CAMK1G = molecular target: T6, CAMK1G (Homo sapiens, UniProt Q96NX5); assay: NanoBRET CELLinib128; format: binding; conditions: 100% no effect, 0% complete tracer displacement, read-out: Tracer bound
T6 construct: Full-length kinase ORF (Promega, Madison, WI, USA) cloned in frame with a NanoLuc-vector was transfected into HEK293T cells; host or cells: HEK293T
T6 sequence (Q96NX5 whole entry): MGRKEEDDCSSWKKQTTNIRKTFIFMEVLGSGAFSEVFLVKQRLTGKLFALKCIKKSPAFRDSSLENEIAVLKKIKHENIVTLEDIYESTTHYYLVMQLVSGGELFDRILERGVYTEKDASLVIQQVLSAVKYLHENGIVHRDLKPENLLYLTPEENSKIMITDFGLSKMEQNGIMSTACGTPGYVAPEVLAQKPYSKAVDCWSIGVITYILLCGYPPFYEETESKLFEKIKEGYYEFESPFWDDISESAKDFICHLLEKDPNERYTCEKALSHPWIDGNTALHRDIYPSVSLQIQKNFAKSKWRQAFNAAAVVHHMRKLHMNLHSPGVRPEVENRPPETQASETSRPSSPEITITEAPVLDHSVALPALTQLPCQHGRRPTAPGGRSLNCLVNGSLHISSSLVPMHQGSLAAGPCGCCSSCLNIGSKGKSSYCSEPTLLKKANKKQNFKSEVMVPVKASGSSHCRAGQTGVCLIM

[4] = mouse (CD-1) liver microsomes, 25 μM

Structure (SMILES): Cc1ncsc1-c1ccc([C@H](C)NC(=O)[C@@H]2C[C@@H](O)CN2C(=O)[C@@H](NC(=O)CCOCCOCCOCCNC(=O)c2cc(Oc3ccc(NC(=O)Nc4cc(C(C)(C)C)on4)cc3)ccn2)C(C)(C)C)cc1 [MA49, reference compound]
- % FLT3-ITD Binding at 1 µM (FLT3-ITD [1]): 91 ± 2%
- viability at 24 h, 50 µM (in vitro): 2.9 ± 0.3%
- 20 min—Compound Remaining % [2, 4]: 52.9 ± 2.1%
- 30 min—Compound Remaining % [2, 4]: 37.2 ± 0.6%
- 60 min—Compound Remaining % [2, 4]: 28.8 ± 2.9%
- degraded after 2 h [2]: 85.0%
- 10 min - compound remaining % ([2]; listed as MA49_B): 71%
- 20 min - compound remaining % ([2]; listed as MA49_B): 57%
- 30 min - compound remaining % ([2]; listed as MA49_B): 38%
- 60 min - compound remaining % ([2]; listed as MA49_B): 35%
- 120 min - compound remaining % ([2]; 120 min, listed as MA49_B): 10%
- induction of late apoptosis (MOLM-13 cells): most potent inducers of late apoptosis
- cytotoxic effects (HEK293 cells): showed cytotoxic effects

Structure (SMILES): CNC(=O)c1cc(Oc2ccc(NC(=O)Nc3cc(C(C)(C)C)on3)cc2)ccn1 [MA68, reference compound]
- remaining activity at 1 µM (TEC): 107%
- remaining activity at 1 µM (EPHA1): 37.2%
- remaining activity at 1 µM (STK17B): 102%
- remaining activity at 1 µM (EPHA4): 33.7%
- viability at 24 h, 50 µM (in vitro): 11.5 ± 2.2%
- cytotoxic effects (HEK293 cells): showed cytotoxic effects
- remaining activity at 1 µM (SRC): 120%
- remaining activity at 1 µM (STK26): 88.5%
- remaining activity at 1 µM (EPHB1): 27.7%
- FLT3-ITD degradation (FLT3-ITD [3]): but not their underlying kinase inhibitor MA68, eliminate FLT3-ITD
- remaining activity at 1 µM (GSK3B): 120%
- remaining activity at 1 µM (CAMK1D): 102%
- remaining activity at 1 µM (EPHB3): 44.8%
- remaining activity at 1 µM (DDR1): 4%
- remaining activity at 1 µM (FGR): 119%
- remaining activity at 1 µM (MARK3): 105%
- remaining activity at 1 µM (FRK): 68.2%
- Tracer bound (EPHB2): 49.5%
- remaining activity at 1 µM (CAMK1G): 101%

Structure (SMILES): Cc1ncsc1-c1ccc([C@H](C)NC(=O)[C@@H]2C[C@@H](O)CN2C(=O)[C@@H](NC(=O)[C@H]2CC[C@H](C(=O)N3CCC(CCNC(=O)c4cc(Oc5ccc(NC(=O)Nc6cc(C(C)(C)C)on6)cc5)ccn4)CC3)CC2)C(C)(C)C)cc1 [MA190, 4-(4-(3-(5-(tert-Butyl)isoxazol-3-yl)ureido)phenoxy)-N-(2-(1-(trans-4-(((S)-1-((2S,4R)-4-hydroxy-2-(((S)-1-(4-(4-methylthiazol-5-yl)phenyl)ethyl)carbamoyl)pyrrolidin-1-yl)-3,3-dimethyl-1-oxobutan-2-yl)carbamoyl)cyclohexanecarbonyl)piperidin-4-yl)ethyl)picolinamide]
- % FLT3-ITD Binding at 1 µM (FLT3-ITD [1]): 71 ± 1%
- viability at 24 h, 50 µM (in vitro): 99.1 ± 3.1%
- 10 min—Compound Remaining % [2, 4]: 91.5 ± 0.4%
- 20 min—Compound Remaining % [2, 4]: 88.5 ± 1.2%
- 30 min—Compound Remaining % [2, 4]: 93.9 ± 0.6%
- degraded after 2 h [2]: 8.0%
- 20 min - compound remaining % ([2]; listed as MA190_B): 87%
- 30 min - compound remaining % ([2]; listed as MA190_B): 93%
- 120 min - compound remaining % ([2]; 120 min, listed as MA190_B): 93%
- induction of late apoptosis (MOLM-13 cells): most potent inducers of late apoptosis
- cytotoxic effects (HEK293 cells): no cytotoxic effects
- FLT3-ITD degradation (FLT3-ITD [3]): eliminate FLT3-ITD

Structure (SMILES): Cc1ncsc1-c1ccc([C@H](C)NC(=O)[C@@H]2C[C@@H](O)CN2C(=O)[C@@H](NC(=O)[C@H]2CC[C@H](C(=O)N3CCN(CCNC(=O)c4cc(Oc5ccc(NC(=O)Nc6cc(C(C)(C)C)on6)cc5)ccn4)CC3)CC2)C(C)(C)C)cc1 [MA191, 4-(4-(3-(5-(tert-Butyl)isoxazol-3-yl)ureido)phenoxy)-N-(2-(4-(trans-4-(((S)-1-((2S,4R)-4-hydroxy-2-(((S)-1-(4-(4-methylthiazol-5-yl)phenyl)ethyl)carbamoyl)pyrrolidin-1-yl)-3,3-dimethyl-1-oxobutan-2-yl)carbamoyl)cyclohexanecarbonyl)piperazin-1-yl)ethyl)picolinamide]
- remaining activity at 1 µM (TEC): 113%
- % FLT3-ITD Binding at 1 µM (FLT3-ITD [1]): 88 ± 2%
- remaining activity at 1 µM (EPHA1): 120%
- remaining activity at 1 µM (STK17B): 92.4%
- remaining activity at 1 µM (EPHA4): 118%
- viability at 24 h, 50 µM (in vitro): 86.9 ± 5.8%
- 10 min—Compound Remaining % [2, 4]: 98.2 ± 0.9%
- 20 min—Compound Remaining % [2, 4]: 97.0 ± 1.0%
- 30 min—Compound Remaining % [2, 4]: 95.0 ± 1.2%
- 60 min—Compound Remaining % [2, 4]: 91.2 ± 1.8%
- 120 min—Compound Remaining % ([2]; mouse (CD-1) liver microsomes, 25 μM, 120 min): 89.2 ± 1.0%
- degraded after 2 h [2]: 10.8%
- 10 min - compound remaining % ([2]; listed as MA191_B): 97%
- 20 min - compound remaining % ([2]; listed as MA191_B): 98%
- 60 min - compound remaining % ([2]; listed as MA191_B): 89%
- 120 min - compound remaining % ([2]; 120 min, listed as MA191_B): 88%
- induction of late apoptosis (MOLM-13 cells): most potent inducers of late apoptosis
- cytotoxic effects (HEK293 cells): no cytotoxic effects
- remaining activity at 1 µM (SRC): 120%
- remaining activity at 1 µM (STK26): 82.3%
- remaining activity at 1 µM (EPHB1): 85.1%
- FLT3-ITD degradation (FLT3-ITD [3]): eliminate FLT3-ITD
- remaining activity at 1 µM (GSK3B): 120%
- remaining activity at 1 µM (CAMK1D): 85.4%
- remaining activity at 1 µM (EPHB3): 120%
- remaining activity at 1 µM (DDR1): 85.7%
- remaining activity at 1 µM (FGR): 120%
- remaining activity at 1 µM (MARK3): 102%
- remaining activity at 1 µM (FRK): 117%
- Tracer bound (EPHB2): 120.0%
- remaining activity at 1 µM (CAMK1G): 91.6%
